Results taken from the supplement of paper PMC10307832.

Key:
Test in all cases: relative viability (nuclei count vs DMSO), 5 days (fraction); higher = more cells survive
[1] = compound: COc1nc(N)nc2c1ncn2[C@@H]1O[C@H](CO)[C@@H](O)[C@@H]1O [Nelarabine] + CC(C)C[C@H](NC(=O)[C@H](Cc1ccccc1)NC(=O)c1cnccn1)B(O)O [Bortezomib] (partner 0.002 µM)
Outline: (§1)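 Lung cancer cell lines were seeded in 1536-well plates and dosed by pin tool the next day, with either a single drug or a fixed anchor-drug dose combined with five library-drug doses (not always all listed) spaced in √10 steps. Five days later, one step fixed the cells and stained their nuclei (final 0.05% Triton X-100, 1% formaldehyde, 1 ug/ml Hoechst), and nuclei were counted on 4× images. Relative viability is the nuclei count in treated wells divided by the count in vehicle wells, and each value is the median of duplicate plates.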

[2] = compound: C=CCn1c(=O)c2cnc(Nc3ccc(N4CCN(C)CC4)cc3)nc2n1-c1cccc(C(C)(C)O)n1 [Adavosertib] + O=C(c1cc(Cc2n[nH]c(=O)c3ccccc23)ccc1F)N1CCN(C(=O)C2CC2)CC1 [Olaparib] (partner 8 µM)
Outline: as §1

[3] = compound: COc1nc(N)nc2c1ncn2[C@@H]1O[C@H](CO)[C@@H](O)[C@@H]1O [Nelarabine] + C[C@]1(O)C[C@@H](c2nc(-c3ccc4ccc(-c5ccccc5)nc4c3)c3c(N)nccn32)C1 [Linsitinib] (partner 1 µM)
Outline: as §1

[4] = compound: C=CCn1c(=O)c2cnc(Nc3ccc(N4CCN(C)CC4)cc3)nc2n1-c1cccc(C(C)(C)O)n1 [Adavosertib] + Cc1nc(NC(=O)N2CCC[C@H]2C(N)=O)sc1-c1ccnc(C(C)(C)C(F)(F)F)c1 [Alpelisib] (partner 2 µM)
Outline: as §1

Cell Line | relative viability ([1]; first compound 0.01 µM) | relative viability ([1]; first compound 0.03162 µM) | relative viability ([1]; first compound 0.1 µM) | relative viability ([1]; first compound 0.3162 µM) | relative viability ([1]; first compound 1 µM) | relative viability ([2]; first compound 0.01 µM) | relative viability ([2]; first compound 0.03162 µM) | relative viability ([2]; first compound 0.1 µM) | relative viability ([2]; first compound 0.3162 µM) | relative viability ([3]; first compound 0.01 µM) | relative viability ([3]; first compound 0.03162 µM) | relative viability ([3]; first compound 0.1 µM) | relative viability ([3]; first compound 0.3162 µM) | relative viability ([3]; first compound 1 µM) | relative viability ([4]; first compound 0.01 µM) | relative viability ([4]; first compound 0.03162 µM) | relative viability ([4]; first compound 0.1 µM) | relative viability ([4]; first compound 0.3162 µM)
HCC-366 | 1.95 | 0.968 | 1.33 | 1.23 | 1.13 | 0.356 | 0.376 | 0.317 | 0.32 | 1.21 | 0.427 | 0.551 | 0.785 | 0.769 | 0.47 | 0.435 | 0.501 | 0.509
HCC-78 | 0.771 | 0.497 |  | 0.584 | 0.539 | 0.966 | 0.807 | 0.83 | 0.835 | 0.627 | 0.506 |  | 0.536 | 0.574 | 0.347 | 0.305 | 0.443 | 0.278
NCI-H358 |  |  |  |  |  | 0.563 | 0.517 | 0.416 | 0.329 | 0.891 | 0.613 | 0.694 | 0.865 | 0.74 | 0.831 | 0.769 | 0.693 | 0.336
NCI-H23 | 1.38 | 0.97 | 1.13 | 0.957 | 1.1 | 0.339 | 0.317 | 0.24 | 0.138 | 0.749 | 0.671 | 0.613 | 0.623 | 0.622 | 0.639 | 0.775 | 0.591 | 0.346
PC-14 | 1.14 | 0.898 | 0.854 | 0.828 | 0.841 | 0.44 | 0.211 | 0.176 | 0.0727 | 1.03 | 0.96 | 0.986 | 0.979 | 1.03 | 0.944 | 0.883 | 0.948 | 0.493
SW 900 |  |  |  |  |  | 0.722 | 0.851 | 0.779 | 0.399 |  |  |  |  |  |  |  |  | 
NCI-H1650 | 0.173 | 0.213 | 0.231 | 0.196 | 0.233 | 0.714 | 0.708 | 0.76 | 0.622 |  |  |  |  |  |  |  |  | 
H3255 | 1.06 | 0.868 | 0.897 | 0.722 | 0.696 | 0.604 | 0.522 | 0.667 | 0.583 | 1.31 | 1.09 | 1.12 | 0.885 | 0.957 | 0.648 | 0.689 | 0.716 | 0.668
NCI-H1563 | 0.943 | 0.903 | 0.766 | 0.84 | 0.908 |  |  |  |  | 1.23 | 1.22 | 1.18 | 1.19 | 1.18 | 0.924 | 0.943 | 0.949 | 1.12
A549 |  |  |  |  |  | 0.356 | 0.336 | 0.446 | 0.438 | 0.714 | 0.622 | 0.585 | 0.523 | 0.642 | 0.813 | 0.896 | 0.957 | 0.804
UMC-11 | 0.928 | 0.572 | 0.924 | 0.816 | 0.535 | 0.411 | 0.429 | 0.452 | 1.03 | 1.34 | 0.768 | 0.949 | 0.987 | 0.896 | 1.03 | 1.02 | 1.18 | 1.04
LOU-NH91 | 0.447 | 0.519 | 0.553 | 0.474 | 0.513 | 0.857 | 0.917 | 0.946 | 0.928 | 1.02 | 0.953 | 0.865 | 0.886 | 0.947 | 0.704 | 0.758 | 0.731 | 0.66
NCI-H1299 | 1.08 | 1.09 | 1.05 | 1.06 | 1.01 | 0.953 | 0.959 | 1.04 | 0.357 | 1.19 | 1.02 | 1.05 | 1.04 | 0.963 | 1.06 | 0.979 | 1.07 | 0.997
HCC-44 | 1.05 | 0.845 | 0.866 | 0.924 | 0.924 | 1 | 0.943 | 1.02 | 1.02 | 0.712 | 0.678 | 0.678 | 0.657 | 0.691 | 0.881 | 0.864 | 0.813 | 0.958
NCI-H1437 | 0.678 | 0.523 | 0.553 | 0.479 | 0.444 | 0.65 | 0.613 | 0.643 | 0.566 | 1.27 | 1.05 | 0.998 | 1.08 | 1.01 | 1.01 | 1.02 | 0.897 | 0.977
HARA | 1.19 | 1.08 | 1.16 | 1.21 | 1.02 | 0.464 | 0.535 | 0.766 | 0.187 | 1.29 | 0.814 | 0.771 | 1.18 | 0.941 | 0.746 | 0.858 | 0.814 | 0.63
EBC-1 | 0.559 | 0.525 | 0.548 | 0.55 | 0.549 | 0.624 | 0.765 | 0.83 | 0.647 | 0.99 | 1.13 | 0.929 | 0.91 | 0.939 | 0.98 | 0.843 | 0.921 | 0.81
NCI-H2085 | 1.07 | 0.976 | 1.02 | 1.05 | 0.889 | 0.831 | 0.753 | 0.829 | 0.759 | 1.3 | 0.747 | 0.848 | 0.883 | 0.867 | 1.02 | 0.993 | 0.969 | 0.975

Cell Line | relative viability ([1]; first compound 0.01 µM) | relative viability ([1]; first compound 0.03162 µM) | relative viability ([1]; first compound 0.1 µM) | relative viability ([1]; first compound 0.3162 µM) | relative viability ([1]; first compound 1 µM) | relative viability ([2]; first compound 0.01 µM) | relative viability ([2]; first compound 0.03162 µM) | relative viability ([2]; first compound 0.1 µM) | relative viability ([2]; first compound 0.3162 µM) | relative viability ([3]; first compound 0.01 µM) | relative viability ([3]; first compound 0.03162 µM) | relative viability ([3]; first compound 0.1 µM) | relative viability ([3]; first compound 0.3162 µM) | relative viability ([3]; first compound 1 µM) | relative viability ([4]; first compound 0.01 µM) | relative viability ([4]; first compound 0.03162 µM) | relative viability ([4]; first compound 0.1 µM) | relative viability ([4]; first compound 0.3162 µM)
NCI-H322M | 1.29 | 1.2 | 1.18 | 1.28 | 1.46 | 0.771 | 0.801 | 0.699 | 0.425 | 1.05 | 1.11 | 0.816 | 0.901 | 0.924 |  | 0.77 | 0.711 | 0.543
NCI-H1355 | 1.39 | 1.05 | 1.25 | 1.32 | 1.37 | 0.736 | 0.698 | 0.757 | 0.685 | 1.04 | 0.688 | 0.739 | 0.822 | 0.887 | 0.878 | 0.84 | 0.777 | 0.751
COR-L 105 | 1.02 | 0.912 | 0.683 | 0.678 | 0.979 | 0.657 | 0.689 | 0.76 | 0.65 | 0.863 | 1.03 | 0.95 | 1.04 | 0.984 | 1.05 | 1.12 | 0.972 | 0.798
201T | 1.11 | 1.02 | 1.12 | 1.15 | 1.08 | 0.887 | 0.882 | 0.868 | 0.818 | 1.18 | 0.942 | 1.07 | 0.958 | 0.96 | 0.986 | 1.03 | 0.94 | 0.962
NCI-H2342 |  |  |  |  |  | 0.497 | 0.561 | 0.492 | 0.524 |  |  |  |  |  |  |  |  | 
NCI-H838 | 1.06 | 0.748 | 0.87 | 0.868 | 0.7 | 0.784 | 0.805 | 0.804 | 0.613 | 1.29 | 0.907 | 1.06 | 1.11 | 1.13 | 1.01 | 1.01 | 0.996 | 1.08
NCI-H522 |  |  |  |  |  | 0.724 | 0.644 | 0.647 | 0.734 |  |  |  |  |  |  |  |  | 
CAL-12T | 1.11 | 0.973 | 1.31 | 0.958 | 0.959 | 0.722 | 0.723 | 0.863 | 0.475 | 0.857 | 0.931 | 0.809 | 0.778 | 0.832 | 1.09 | 1.27 | 1.2 | 0.929
NCI-H1755 | 1.02 | 0.971 | 0.947 | 1.03 | 1.03 | 0.87 | 0.936 | 0.891 | 0.72 | 1.01 | 0.999 | 0.989 | 1.1 | 0.995 | 0.983 | 0.859 | 0.856 | 0.868
LCLC-103H | 1.36 | 1.05 | 1.01 | 1.13 | 1.1 | 0.797 | 0.769 | 0.761 | 0.742 | 1.22 | 1.11 | 1.08 | 1.02 | 1.11 | 0.973 | 0.926 | 1.04 | 0.94
NCI-H1944 |  |  |  |  |  | 0.41 | 0.384 | 0.393 | 0.403 | 1.28 | 1.16 | 1.38 | 1.21 | 1.08 | 0.822 | 0.774 | 0.645 | 0.666
NCI-H1395 |  |  |  |  |  | 0.561 | 0.547 | 0.409 | 0.438 | 1.1 | 1.15 | 1.17 | 0.974 | 1.2 | 0.975 | 1.1 | 1.03 | 0.732
SK-MES-1 |  |  |  |  |  | 0.748 | 0.805 | 0.379 | 0.233 | 1.15 | 1.09 | 1.03 | 1.1 | 1.08 | 0.956 | 0.844 | 0.924 | 0.618
ChaGo-K-1 | 0.997 | 0.85 | 1.26 | 0.93 | 0.925 | 0.434 | 0.39 | 0.405 | 0.32 |  |  |  |  |  |  |  |  | 
NCI-H1648 |  |  |  |  |  | 0.953 | 0.966 | 1.39 | 0.769 |  |  |  |  |  |  |  |  | 
NCI-H2170 |  |  |  |  |  | 0.643 | 0.586 | 0.588 | 0.448 |  |  |  |  |  | 0.849 | 0.804 | 0.678 | 0.705
NCI-H1793 |  |  |  |  |  | 0.739 | 0.794 | 0.746 | 0.529 | 1.3 | 0.801 | 0.863 | 0.724 | 0.84 | 0.746 | 0.6 | 0.752 | 0.637
LK-2 |  |  |  |  |  | 0.742 | 0.891 | 0.763 | 0.767 | 1.24 |  | 0.608 | 0.691 | 0.673 | 1.03 | 1.23 | 1.14 | 1.1
